Reference: patent publication US10981926B2 (Janssen Pharmaceutica NV, priority 2016, dated 2021)
Where two headings read alike, the source gives them in different places.

Key:
Format in all cases: cell-based
AR H874Y = AR H874Y (Homo sapiens (Human), UniProt P10275, H875Y); test: Luciferase Transcriptional Reporter Assay, AR H874Y (HepG2)
Method: (§1) HepG2 cells were maintained in EMEM supplemented with 10% FBS. One day before transfection, the media was changed to EMEM with 10% CSS. T-150 flasks were transiently transfected using 120 μL Lipofectamine 2000 (Life Technologies), 30 μg mutant cDNA (expression vector)—mutant cDNA tested were L701H, T877A, W741C and H874Y—and 40 μg 4×ARE-Luciferase (reporter vector) in OptiMEM and the flasks were incubated overnight. Cells were then trypsinized, counted and resuspended at 500,000 cells/mL. For agonist mode, the compounds of Formula (I) were serially diluted and 50 μL of the compound was added per well. 50 μL of the cells were added to each well and incubated for 48 hours. For antagonist mode, a final concentration of 90 pM R1881 was added to the diluted compounds and incubated for 48 hours. The plates were then assayed using SteadyGlo and read on the Envision. Percent Stimulation and Inhibition were determined and analyzed using GraphPad Prism.
(§2) F876L agonism was evident at 3 and 10 μM (5%) but zero at 30 μM. The antagonistic (IC50) and agonistic (EC50) values for each of the AR cDNA used in the reporter assays are summarized. All values are calculated relative to the activity of R1881 induced androgen receptor activity (n≥3). Also indicated are the maximal inhibition and extent of induction of androgen dependent signaling (%).

AR T877A = AR T877A (Homo sapiens (Human), UniProt P10275, T878A); test: Luciferase Transcriptional Reporter Assay, AR T877A (HepG2)
Method: as §1, §2

AR L701H = AR L701H (Homo sapiens, UniProt P10275, L702H); test: Luciferase Transcriptional Reporter Assay, AR L701H (HepG2)
Method: as §1, §2

VCaP cells = test: Prostate Cancer Cell Viability Assay-VCaP; conditions: Homo sapiens, 120 h, 5 days, CellTiter-Glo
Method: VCaP cells were counted and seeded into black 384-well plates with clear bottoms at a concentration of 125,000 cells per mL in phenol red-free DMEM containing 10% Charcoal Stripped Serum. 16 μL of the suspension was added per well and incubated for 48 h to allow the cells to adhere. After 48 hours, a 12 point serial semilog dilution of each compound was added to the cells in 16 μL at a final concentration of 100 μM to 0.0003 μM. The compounds of Formula (I) were also run in antagonist mode using 30 pM R1881 in which 8 μL of the compound was added to the cells followed by 8 μL of R1881. After 5 days of incubation at 37° C., 16 μL Of CellTiter-Glo (Promega) was added to the cells and the relative luminescence units (RLUs) of each well determined using the Envision. The percent stimulation and % inhibition were determined for each sample and plotted using GraphPad Prism.

AR in LNCaP cells = AR in LNCaP cells (Homo sapiens (Human), UniProt P10275, T878A); test: LNCaP AR Localization Assay; conditions: 4 h, read-out: Inhibition of translocation
Method: LNCaP cells were expanded in RPMI 10% FBS in T150 flasks. The cells were dislodged with 0.25% Trypsin, washed in complete media, centrifuged (300 g, 3 min), and the supernatant aspirated. The cells were resuspended in RPMI phenol-red free media with 1% charcoal-stripped serum (CSS) and counted using a ViCELL (Beckman-Coulter). Three million cells in 7 mL of RPMI CSS were seeded into 100 mm dishes and incubated overnight at 37° C. 5% CO2. The following morning, compound dilutions were prepared in RPMI CSS using 50 mM stock solutions and added directly to the cells to obtain the final concentration of 10 μM. The dishes were placed into the incubator for 4 h. After 4 h, cell scrapers were used to dislodge the cells and the media/cell solution was centrifuged, supernatant aspirated, and then washed with Cell Wash Buffer (Protein Simple). The pellets were stored at −80° C. or processed immediately using the Subcellular Protein Fractionation Kit for Cultured Cells (Thermo-Fisher). The fractions obtained from this kit were stored at −80° C. Later, the samples' protein concentration was determined using the BCA Assay Kit (Thermo-Fisher) and the fraction lysates normalized to 0.6 mg/mL. The lysates were run on the Wes Simple Western platform (ProteinSimple). The data was analyzed, normalized to the total AR, and plotted in GraphPad Prism. […]

[1] = molecular target: F876L mutant Androgen Receptor (AR-F876L) (Homo sapiens (Human), UniProt P10275, F877L); test: LNCaP-AR-F876L AG reporter assay (agonist mode)
[2] = molecular target: wild-type Androgen Receptor (AR-wt) (Homo sapiens (Human), UniProt P10275); test: LNCaP-AR-wt AG reporter assay (agonist mode)
AR W741C = AR W741C (Homo sapiens (Human), UniProt P10275, W742C); test: Luciferase Transcriptional Reporter Assay, AR W741C (HepG2)
Method: as §1, §2

[3] = maximum % stimulation (agonist response) over the tested concentration range

Sequence of AR H874Y (P10275 whole entry H875Y): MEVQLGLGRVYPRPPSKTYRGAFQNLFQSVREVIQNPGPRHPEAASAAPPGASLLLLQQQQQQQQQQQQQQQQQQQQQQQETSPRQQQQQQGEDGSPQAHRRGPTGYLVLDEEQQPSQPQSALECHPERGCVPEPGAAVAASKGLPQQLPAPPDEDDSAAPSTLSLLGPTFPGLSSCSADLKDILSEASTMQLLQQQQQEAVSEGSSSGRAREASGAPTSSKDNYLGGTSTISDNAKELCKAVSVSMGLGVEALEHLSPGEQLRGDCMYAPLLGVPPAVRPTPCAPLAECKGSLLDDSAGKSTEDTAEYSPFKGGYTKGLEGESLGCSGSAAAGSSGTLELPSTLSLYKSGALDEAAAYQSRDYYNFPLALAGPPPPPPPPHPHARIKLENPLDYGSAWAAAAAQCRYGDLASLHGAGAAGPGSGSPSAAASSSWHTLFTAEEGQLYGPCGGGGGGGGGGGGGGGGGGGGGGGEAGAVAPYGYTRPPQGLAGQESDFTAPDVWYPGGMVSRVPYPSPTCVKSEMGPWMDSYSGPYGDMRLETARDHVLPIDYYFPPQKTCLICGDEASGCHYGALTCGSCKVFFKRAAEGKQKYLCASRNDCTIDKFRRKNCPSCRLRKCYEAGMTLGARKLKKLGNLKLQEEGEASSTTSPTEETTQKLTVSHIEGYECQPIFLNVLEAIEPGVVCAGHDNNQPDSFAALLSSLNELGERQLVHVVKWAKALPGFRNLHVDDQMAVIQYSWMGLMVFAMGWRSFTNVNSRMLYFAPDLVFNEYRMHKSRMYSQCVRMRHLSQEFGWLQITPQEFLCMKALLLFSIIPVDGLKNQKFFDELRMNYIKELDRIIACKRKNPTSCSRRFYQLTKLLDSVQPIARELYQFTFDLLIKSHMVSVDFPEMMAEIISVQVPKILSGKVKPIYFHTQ
Sequence of AR L701H (P10275 whole entry L702H): as the sequence (P10275 whole entry H875Y) above, with L702H, Y875H counted along it
Sequence of AR T877A (P10275 whole entry T878A): as the sequence (P10275 whole entry H875Y) above, with Y875H, T878A counted along it
Sequence of AR W741C (P10275 whole entry W742C): as the sequence (P10275 whole entry H875Y) above, with W742C, Y875H counted along it
Sequence of F876L mutant Androgen Receptor (AR-F876L) (P10275 whole entry F877L): as the sequence (P10275 whole entry H875Y) above, with Y875H, F877L counted along it
Sequence of wild-type Androgen Receptor (AR-wt) (P10275 whole entry): as the sequence (P10275 whole entry H875Y) above, with Y875H counted along it
Sequence of AR in LNCaP cells (P10275 whole entry T878A): as the sequence (P10275 whole entry H875Y) above, with Y875H, T878A counted along it

N#Cc1ncc(N2C(=O)C3(CCC3)N(c3ccc(OC4CCNCC4)nc3)C2=S)cc1C(F)(F)F [Cpd 43, 5-[5-oxo-8-[6-(4-piperidyloxy)-3-pyridyl]-7-thioxo-6,8-diazaspiro[3.4]octan-6-yl]-3-(trifluoromethyl)pyridine-2-carbonitrile]
Emax (AR H874Y; HepG2, agonist mode, relative to R1881, read-out: Agonism % Emax, AR construct H874Y): 0%
IC50 (AR H874Y; HepG2, antagonist mode, 90 pM R1881, 48 hours, read-out: Antagonism IC50, AR construct H874Y): 16.8 µM
Emax (AR H874Y; HepG2, antagonist mode, maximal inhibition, read-out: Antagonism % Emax, AR construct H874Y): 80%
EC50 (AR T877A; HepG2, agonist mode, 48 hours, read-out: Agonism EC50, AR construct T877A): 2.29 µM
Emax (AR T877A; HepG2, agonist mode, relative to R1881, read-out: Agonism % Emax, AR construct T877A): 10%
IC50 (AR T877A; HepG2, antagonist mode, 90 pM R1881, 48 hours, read-out: Antagonism IC50, AR construct T877A): 6.81 µM
Emax (AR T877A; HepG2, antagonist mode, maximal inhibition, read-out: Antagonism % Emax, AR construct T877A): 80%
Emax (AR L701H; HepG2, agonist mode, relative to R1881, read-out: Agonism % Emax, AR construct L701H): 0%
IC50 (AR L701H; HepG2, antagonist mode, 90 pM R1881, 48 hours, read-out: Antagonism IC50, AR construct L701H): 10 µM
Emax (AR L701H; HepG2, antagonist mode, maximal inhibition, read-out: Antagonism % Emax, AR construct L701H): 90%
IC50 (VCaP cells): 0.27 µM
inhibition at 10 µM (AR in LNCaP cells): 50%
EC50 ([1]; agonist mode, pEC50 = −Log10(EC50 in Molar), read-out: LNCaP-AR-F876L AG pEC50 (converted)): > 15.1 µM
LNCaP-AR-F876L AG MAX % Stim [1, 3]: 0.1%
EC50 ([2]; agonist mode, pEC50 = −Log10(EC50 in Molar), read-out: LNCaP-AR-wt AG pEC50 (converted)): > 15.1 µM
LNCaP-AR-wt AG MAX % Stim [2, 3]: −0.1%
EC50 (AR W741C; HepG2, agonist mode, 48 hours, read-out: Agonism EC50, AR construct W741C): 2.83 µM
Emax (AR W741C; HepG2, agonist mode, relative to R1881, read-out: Agonism % Emax, AR construct W741C): 0%
IC50 (AR W741C; HepG2, antagonist mode, 90 pM R1881, 48 hours, read-out: Antagonism IC50, AR construct W741C): 12.3 µM
Emax (AR W741C; HepG2, antagonist mode, maximal inhibition, read-out: Antagonism % Emax, AR construct W741C): 85%
